# From article PMC7181660, “A novel specific PERK activator reduces toxicity and extends survival in Huntington's disease models” (Scientific Reports, 2020)
# Assays:
# Assay in all cases: biochemical
# Assay type in all cases: biochemical
# panel of 391 kinases [1] = target: panel of 391 kinases (Homo sapiens, UniProt Q9Y5S2); conditions: MRCKb/CDC42BPB, MK-28 1 µM, ATP 1 µM
# panel of 391 kinases [2] = target: panel of 391 kinases (Homo sapiens, UniProt P53667); conditions: LIMK1, MK-28 1 µM, ATP 1 µM
# panel of 391 kinases [3] = target: panel of 391 kinases (Homo sapiens, UniProt Q8N4C8); conditions: MINK/MINK1, MK-28 1 µM, ATP 1 µM
# panel of 391 kinases [4] = target: panel of 391 kinases (Homo sapiens, UniProt Q9P0L2); conditions: MARK1, MK-28 1 µM, ATP 1 µM
# panel of 391 kinases [5] = target: panel of 391 kinases (Homo sapiens, UniProt Q9UPE1); conditions: MSSK1/STK23, MK-28 1 µM, ATP 1 µM
# panel of 391 kinases [6] = target: panel of 391 kinases (Homo sapiens, UniProt P29322); conditions: EPHA8, MK-28 1 µM, ATP 1 µM
# panel of 391 kinases [7] = target: panel of 391 kinases (Homo sapiens, UniProt O94804); conditions: LOK/STK10, MK-28 1 µM, ATP 1 µM
# panel of 391 kinases [8] = target: panel of 391 kinases (Homo sapiens, UniProt O43318); conditions: TAK1, MK-28 1 µM, ATP 1 µM
# panel of 391 kinases [9] = target: panel of 391 kinases (Homo sapiens, UniProt Q86V86); conditions: PIM3, MK-28 1 µM, ATP 1 µM
# panel of 391 kinases [10] = target: panel of 391 kinases (Homo sapiens, UniProt P46734); conditions: MEK3, MK-28 1 µM, ATP 1 µM
# panel of 391 kinases [11] = target: panel of 391 kinases (Homo sapiens, UniProt Q16816); conditions: PHKg1, MK-28 1 µM, ATP 1 µM
# panel of 391 kinases [12] = target: T1, panel of 391 kinases (Homo sapiens, UniProt Q9NR20); conditions: DYRK4, MK-28 1 µM, ATP 1 µM
# T1 sequence (Q9NR20 1-520): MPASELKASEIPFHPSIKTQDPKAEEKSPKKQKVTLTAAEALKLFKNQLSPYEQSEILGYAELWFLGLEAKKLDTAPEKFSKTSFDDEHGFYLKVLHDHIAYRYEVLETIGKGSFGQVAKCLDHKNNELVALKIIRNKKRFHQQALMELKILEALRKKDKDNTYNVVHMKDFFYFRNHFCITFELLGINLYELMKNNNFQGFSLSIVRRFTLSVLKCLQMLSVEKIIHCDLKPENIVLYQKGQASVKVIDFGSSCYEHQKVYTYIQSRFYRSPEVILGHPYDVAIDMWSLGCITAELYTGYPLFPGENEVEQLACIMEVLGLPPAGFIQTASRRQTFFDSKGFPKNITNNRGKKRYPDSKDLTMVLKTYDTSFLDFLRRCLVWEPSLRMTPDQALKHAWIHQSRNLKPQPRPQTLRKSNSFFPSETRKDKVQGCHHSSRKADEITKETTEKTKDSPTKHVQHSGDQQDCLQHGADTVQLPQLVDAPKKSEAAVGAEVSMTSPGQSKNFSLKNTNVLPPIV
# panel of 391 kinases [13] = target: panel of 391 kinases (Homo sapiens, UniProt Q6DT37); conditions: DMPK2, MK-28 1 µM, ATP 1 µM
# panel of 391 kinases [14] = target: panel of 391 kinases (Homo sapiens, UniProt Q13627); conditions: DYRK1/DYRK1A, MK-28 1 µM, ATP 1 µM
# panel of 391 kinases [15] = target: panel of 391 kinases (Homo sapiens, UniProt Q16620); conditions: TRKB, MK-28 1 µM, ATP 1 µM
# panel of 391 kinases [16] = target: panel of 391 kinases (Homo sapiens, UniProt O43781); conditions: DYRK3, MK-28 1 µM, ATP 1 µM
# panel of 391 kinases [17] = target: panel of 391 kinases (Homo sapiens, UniProt Q96PF2); conditions: TSSK2, MK-28 1 µM, ATP 1 µM
# panel of 391 kinases [18] = target: panel of 391 kinases (Homo sapiens, UniProt O43293); conditions: kinase ZIPK/DAPK3, compound at 1 µM, single dose in duplicates, 1 µM ATP
# panel of 391 kinases [19] = target: panel of 391 kinases (Homo sapiens, UniProt Q8IVH8); conditions: GLK/MAP4K3, MK-28 1 µM, ATP 1 µM
# panel of 391 kinases [20] = target: panel of 391 kinases (Homo sapiens, UniProt P52564); conditions: MKK6, MK-28 1 µM, ATP 1 µM
# panel of 391 kinases [21] = target: panel of 391 kinases (Homo sapiens, UniProt P28482); conditions: ERK2/MAPK1, MK-28 1 µM, ATP 1 µM
# panel of 391 kinases [22] = target: panel of 391 kinases (Homo sapiens, UniProt Q9H0K1); conditions: SIK2, MK-28 1 µM, ATP 1 µM
# [23] = read-out: % Enzyme Activity (relative to DMSO controls)
smiles,measurement,setting,value
CN(/N=C\c1ccc(O)c(O)c1)c1nc(-c2ccccc2)cc(-c2ccccc2)n1 [MK-28],% Enzyme Activity (relative to DMSO controls),panel of 391 kinases [1],100.39%
same,remaining activity at 1 µM,panel of 391 kinases [1]; [23],101%
same,% Enzyme Activity (relative to DMSO controls),panel of 391 kinases [2],93.55%
same,remaining activity at 1 µM,panel of 391 kinases [2]; [23],101%
same,% Enzyme Activity (relative to DMSO controls),panel of 391 kinases [3],95.98%
same,remaining activity at 1 µM,panel of 391 kinases [3]; [23],98.7%
same,% Enzyme Activity (relative to DMSO controls),panel of 391 kinases [4],94.22%
same,remaining activity at 1 µM,panel of 391 kinases [4]; [23],94.5%
same,% Enzyme Activity (relative to DMSO controls),panel of 391 kinases [5],107.79%
same,remaining activity at 1 µM,panel of 391 kinases [5]; [23],108%
same,% Enzyme Activity (relative to DMSO controls),panel of 391 kinases [6],98.42%
same,remaining activity at 1 µM,panel of 391 kinases [6]; [23],98.7%
same,% Enzyme Activity (relative to DMSO controls),panel of 391 kinases [7],100.78%
same,remaining activity at 1 µM,panel of 391 kinases [7]; [23],101%
same,% Enzyme Activity (relative to DMSO controls),panel of 391 kinases [8],97.66%
same,remaining activity at 1 µM,panel of 391 kinases [8]; [23],97.9%
same,% Enzyme Activity (relative to DMSO controls),panel of 391 kinases [9],87.24%
same,remaining activity at 1 µM,panel of 391 kinases [9]; [23],89.2%
same,% Enzyme Activity (relative to DMSO controls),panel of 391 kinases [10],88.71%
same,remaining activity at 1 µM,panel of 391 kinases [10]; [23],96.2%
same,% Enzyme Activity (relative to DMSO controls),panel of 391 kinases [11],89.19%
same,remaining activity at 1 µM,panel of 391 kinases [11]; [23],90.7%
same,% Enzyme Activity (relative to DMSO controls),panel of 391 kinases [12],99.42%
same,remaining activity at 1 µM,panel of 391 kinases [12]; [23],101%
same,% Enzyme Activity (relative to DMSO controls),panel of 391 kinases [13],101.16%
same,remaining activity at 1 µM,panel of 391 kinases [13]; [23],106%
same,% Enzyme Activity (relative to DMSO controls),panel of 391 kinases [14],102.59%
same,remaining activity at 1 µM,panel of 391 kinases [14]; [23],103%
same,% Enzyme Activity (relative to DMSO controls),panel of 391 kinases [15],96.28%
same,remaining activity at 1 µM,panel of 391 kinases [15]; [23],96.3%
same,% Enzyme Activity (relative to DMSO controls),panel of 391 kinases [16],96.41%
same,remaining activity at 1 µM,panel of 391 kinases [16]; [23],97.5%
same,% Enzyme Activity (relative to DMSO controls),panel of 391 kinases [17],76.99%
same,remaining activity at 1 µM,panel of 391 kinases [17]; [23],77.3%
same,% Enzyme Activity (relative to DMSO controls),panel of 391 kinases [18],79.41%
same,remaining activity at 1 µM,panel of 391 kinases [18]; [23],79.9%
same,% Enzyme Activity (relative to DMSO controls),panel of 391 kinases [19],94.50%
same,remaining activity at 1 µM,panel of 391 kinases [19]; [23],95.9%
same,% Enzyme Activity (relative to DMSO controls),panel of 391 kinases [20],94.11%
same,remaining activity at 1 µM,panel of 391 kinases [20]; [23],95.6%
same,% Enzyme Activity (relative to DMSO controls),panel of 391 kinases [21],105.81%
same,remaining activity at 1 µM,panel of 391 kinases [21]; [23],107%
same,% Enzyme Activity (relative to DMSO controls),panel of 391 kinases [22],93.76%
same,remaining activity at 1 µM,panel of 391 kinases [22]; [23],97.5%
